This note sets out measurements from patent US20180132483A1, “Method of Controlling Phytoparasitic Pests, Agrochemical Composition and Use Thereof” (priority 2016, published 2018).

The test system of this test is soil Fusarium sp. Nature of the test: Activity against soil Fusarium sp.

As for `CC(=O)O.CCCCCCCCCCCCNC(=N)N` [dodine, 1-dodecylguanidinium acetate], the “Activity against soil Fusarium sp.” value is on record as “active”.
